Assay results published in patent US9493501B2 (MEMORIAL SLOAN-KETTERING CANCER CENTER, priority 2011, dated 2016).
pIC50: −log10 of the molar value.

Molecular target: T1, SETD2 (1347-1711) (Homo sapiens, UniProt Q9BYW2)
T1 sequence (Q9BYW2 1347-1711): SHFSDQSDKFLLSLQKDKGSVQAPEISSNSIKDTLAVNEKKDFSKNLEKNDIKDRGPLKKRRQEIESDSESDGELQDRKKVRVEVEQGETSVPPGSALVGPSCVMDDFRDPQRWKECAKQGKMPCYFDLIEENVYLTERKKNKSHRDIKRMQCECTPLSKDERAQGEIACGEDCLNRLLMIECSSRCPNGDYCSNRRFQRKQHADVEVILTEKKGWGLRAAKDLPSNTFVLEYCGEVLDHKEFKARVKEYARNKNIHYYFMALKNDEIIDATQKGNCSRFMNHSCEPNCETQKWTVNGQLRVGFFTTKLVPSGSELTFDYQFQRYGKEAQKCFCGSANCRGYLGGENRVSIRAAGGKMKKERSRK
Experiment: Filter-paper methylation assay, SETD2
Format: biochemical

**Q.** How did the pIC50 turn out when Nc1ncnc2c1ncn2C1OC(CC(CCC(N)C(=O)O)NCc2ccccc2)C(O)C1O (stereo not shown) [Compound 110] was run?
**A.** 6.30
